For 35 molecules, EC50 and IC50 results are on record in ChEMBL document CHEMBL1255511, “Design of a series of bicyclic HIV-1 integrase inhibitors. Part 1: selection of the scaffold” (Bioorg Med Chem Lett, 2010).

The structures appear in SMILES notation.

Assay [1] has as its system Human immunodeficiency virus 1. Kind of assay: Antiviral activity against HIV1 NL4-3 infected in human Hut78 cells assessed as inhibition of viral replication in 50 % normal human serum. Format: functional, organism-based. The following applies: Human immunodeficiency virus 1, NL4-3, HuT78, Serum.
Assay [2] deals with Human immunodeficiency virus type 1 integrase (Human immunodeficiency virus 1, UniProt Q7ZJM1). Kind of assay: Inhibition of HIV1 integrase 3'-strand transfer.
Human immunodeficiency virus type 1 integrase, sequence (Q7ZJM1 whole entry): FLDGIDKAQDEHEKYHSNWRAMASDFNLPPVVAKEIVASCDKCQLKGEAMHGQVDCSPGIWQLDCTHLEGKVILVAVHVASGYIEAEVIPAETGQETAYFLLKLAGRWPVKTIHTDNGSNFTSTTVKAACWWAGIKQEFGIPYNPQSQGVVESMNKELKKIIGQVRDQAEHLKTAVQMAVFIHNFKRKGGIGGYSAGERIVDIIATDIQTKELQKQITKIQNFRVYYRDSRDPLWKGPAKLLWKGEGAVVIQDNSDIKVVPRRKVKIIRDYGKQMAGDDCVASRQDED
The test system of assay [3] is Human immunodeficiency virus 1. Kind of assay: Antiviral activity against HIV1 NL4-3 infected in human Hut78 cells assessed as inhibition of viral replication in presence of 10 % fetal bovine serum. Format: functional, organism-based. As to conditions: Human immunodeficiency virus 1, NL4-3, HuT78.

Consider `O=C(NCc1ccc(F)cc1)c1nc2c(Cl)cc(N3CCOCC3)cn2c(=O)c1O`, for which the EC50 amounted to 158 nM in assay [1] and 11 nM in assay [3]. In assay [2], this molecule returned an IC50 of 135 nM.

`O=C(NCc1ccc(F)cc1)c1nc2c(Br)cc(N3CCOCC3)cn2c(=O)c1O`: the EC50 worked out at 70 nM in assay [1] and 7 nM in assay [3]. Further, the half-maximal inhibitory concentration (IC50) in assay [2] worked out at 130 nM.

In the case of `O=C(NCc1ccc(F)cc1)c1nc2ccc(N3CCOCC3)cn2c(=O)c1O`, the IC50 in assay [2] was found to be 80 nM. Besides, the EC50 in assay [3] amounted to 215 nM.

In the case of `Cn1c2ccccc2n2c(=O)c(O)c(C(=O)NCc3ccc(F)cc3)nc12`, the IC50 in assay [2] stood at 20200 nM.

For `COc1cccc2c1sc1nc(C(=O)NCc3ccc(F)cc3)c(O)c(=O)n12`, the concentration for half-maximal inhibition (IC50) in assay [2] is more than 50000 nM.

For the molecule `O=C(NCc1ccc(F)cc1)c1nc2c(OCC3CC3)cc(N3CCOCC3)cn2c(=O)c1O`, the EC50 in assay [1] came out at 590 nM; in assay [3], 12 nM. In assay [2], this molecule returned an IC50 of 429 nM.

For `O=C(NCc1ccc(F)cc1)c1nc2ccccn2c(=O)c1O`, it took 587 nM to reach half-maximal inhibition in assay [2] (IC50).

Take `O=C(NCc1ccc(F)cc1)c1nc2c(I)cc(N3CCOCC3)cn2c(=O)c1O`: the values for the EC50 in assay [1] and in assay [3] were 50 nM and 6 nM, respectively. This molecule registered an IC50 in assay [2] of 85 nM.

In turn, `Cc1cc2nc(C(=O)NCc3ccc(F)cc3)c(O)c(=O)n2o1` had an IC50 in assay [2] of 5100 nM.

In turn, `Cn1c2ccccc2c2nc(C(=O)NCc3ccc(F)cc3)c(O)c(=O)n21` showed a half-maximal inhibitory concentration (IC50) in assay [2] of 626 nM.

`O=C(NCc1ccc(F)cc1)c1nc2c(N3CCOCC3)cc(N3CCOCC3)cn2c(=O)c1O`: the results for the EC50 in assay [1] and in assay [3] were 1550 nM and 730 nM, respectively. In addition, the half-maximal inhibitory concentration (IC50) in assay [2] was 755 nM.

As to `Cc1nnc(C(=O)NC(C)(C)c2nc(C(=O)NCc3ccc(F)cc3)c(O)c(=O)n2C)o1` [RALTEGRAVIR POTASSIUM], the EC50 in assay [1] was determined as 7.1 nM; in assay [3] it was 9.4 nM.

`O=C(NCc1ccc(F)cc1)c1nc2c3ccccc3[nH]n2c(=O)c1O` displayed an IC50 in assay [2] of more than 10000 nM.

Turning to `O=C(NCc1ccc(F)cc1)c1nc2[nH]c3ccccc3n2c(=O)c1O`, in assay [2], the 50% inhibitory concentration (IC50) was more than 100000 nM.

On to `O=C(NCc1ccc(F)cc1)c1nc2sc(N3CCOCC3)cn2c(=O)c1O`, for which inhibition in assay [2] was half-maximal at 1130 nM (IC50).

`CC(C)Oc1cc(N2CCOCC2)cn2c(=O)c(O)c(C(=O)NCc3ccc(F)cc3)nc12` showed an IC50 in assay [2] of 245 nM. For the same molecule, the EC50 in assay [3] amounted to 5 nM.

As for `O=C(NCc1ccc(F)cc1)c1nc2sccn2c(=O)c1O`, the IC50 in assay [2] turned out to be 33200 nM.

Turning to `O=C(NCc1ccc(F)cc1)c1nc2c(N3CCCS3(=O)=O)cc(N3CCOCC3)cn2c(=O)c1O`, the EC50 in assay [1] is 18 nM; in assay [3], 10.3 nM. Also, in assay [2], the IC50 was 195 nM.

In turn, `O=C(NCc1ccc(F)cc1)c1nc2sc3ccccc3n2c(=O)c1O` had an IC50 in assay [2] of more than 30000 nM.

As for `CN1CCN(c2cc(N3CCN(C)S3(=O)=O)c3nc(C(=O)NCc4ccc(F)cc4)c(O)c(=O)n3c2)CC1`, the EC50 in assay [1] was found to be 4 nM; in assay [3] it was 3 nM.

For `CC(=O)N1CCN(c2cc(Br)c3nc(C(=O)NCc4ccc(F)cc4)c(O)c(=O)n3c2)CC1`, the values for the EC50 in assay [1] and in assay [3] were 40 nM and 8 nM, respectively. Also, it took 110 nM to reach half-maximal inhibition in assay [2] (IC50).

For `Cc1cn2c(=O)c(O)c(C(=O)NCc3ccc(F)cc3)nc2s1`, the IC50 in assay [2] amounted to 4250 nM.

Regarding `COc1cc(N2CCOCC2)cn2c(=O)c(O)c(C(=O)NCc3ccc(F)cc3)nc12`, the values for the EC50 in assay [1] and in assay [3] were 1400 nM and 9.5 nM, respectively. Also, the IC50 in assay [2] is 170 nM.

`N#Cc1c[nH]n2c(=O)c(O)c(C(=O)NCc3ccc(F)cc3)nc12` returned an IC50 in assay [2] of 13700 nM.

`Cn1ccc2nc(C(=O)NCc3ccc(F)cc3)c(O)c(=O)n21`: the IC50 in assay [2] is more than 30000 nM.

`O=C(NCc1ccc(F)cc1)c1nc2c3ccccc3on2c(=O)c1O` showed an IC50 in assay [2] of more than 10000 nM.

`O=C(NCc1ccc(F)cc1)c1nc2cc(-c3ccccc3)[nH]n2c(=O)c1O` came in with an IC50 in assay [2] of more than 100000 nM.

Regarding `O=C(NCc1ccc(F)cc1)c1nc2ccc(Br)cn2c(=O)c1O`, the IC50 in assay [2] worked out at 445 nM.

On to `O=C(NCc1cc(Cl)cc(Cl)c1)c1nc2c(N3CCCS3(=O)=O)cc(N3CCOCC3)cn2c(=O)c1O`, for which the EC50 in assay [1] came out at 43 nM; in assay [3] it was 0.2 nM. This molecule registered a concentration for half-maximal inhibition (IC50) in assay [2] of 130 nM.

In turn, `Cn1ccn2c(=O)c(O)c(C(=O)NCc3ccc(F)cc3)nc12` registered an IC50 in assay [2] of 76.8 nM.

Consider `CN1CCN(c2cc(N(C)S(C)(=O)=O)c3nc(C(=O)NCc4ccc(F)cc4)c(O)c(=O)n3c2)CC1`, for which the values for the EC50 in assay [1] and in assay [3] were 61.5 nM and 19.8 nM, respectively.

On to `O=C(NCc1ccc(F)cc1)c1nc2c(N3CCCS3(=O)=O)cc(N3CCNCC3)cn2c(=O)c1O`, for which the EC50 in assay [1] is 43 nM; in assay [3] it was 280 nM.

On to `CCN(C(=O)C(=O)N1CCOCC1)c1cccn2c(=O)c(O)c(C(=O)NCc3ccc(F)cc3)nc12`, for which, in assay [3], the concentration for a half-maximal effect (EC50) came out at 31 nM.

`O=C(NCc1ccc(F)cc1)c1nc2c3ccc(N4CCOCC4)cc3on2c(=O)c1O`: in assay [2], the IC50 was more than 10000 nM.

Turning to `O=C(NCc1ccc(F)cc1)c1nc2c(OCc3ccc(F)cc3)cc(N3CCOCC3)cn2c(=O)c1O`, the IC50 in assay [2] amounted to 275 nM. The EC50 in assay [3] amounted to 80 nM.

The term EC50 denotes the concentration needed to bring the measured effect to its halfway point. A word on the IC50: it is the concentration needed to halve the response being measured.
